Measured values taken from patent publication US9073830B2 (Hyundai Pharm Co., Ltd., priority 2011, dated 2015).

Tests used:
human 11β-HSD1 = target: T1, human 11β-HSD1 (Homo sapiens, UniProt P28845); assay: Enzyme activity analysis on human 11β-HSD1 (HTRF cortisol, liver microsomes); assay type: biochemical; conditions: first value of cell
T1 construct: 100 ug/ml human/mouse liver microsomes; from tissue; host or cells: human liver microsomes
Protocol: (§1) After culturing at 37° C. for 2 hours, 5 μl of cryptate-labeled anti-cortisol antibody and 5 μl of d2-labeled cortisol were added thereto. After further culturing at room temperature for 2 hours, a homogeneous time-resolved fluorescence (HTRF, Cisbio) signal was measured. From each analysis, based on a standard curve calculated using cortisols of several known concentrations, an amount of produced cortisol was tested.
(§2) While an amount of cortisol, produced without the compound, was used as a control, an inhibition percentage by the test compound, at each concentration, was calculated. By using an inhibition curve calculated by coordinates of inhibition percentage to test compound concentration, an IC50 value of the compound on 11β-HSD1 was obtained.

mouse 11β-HSD1 = target: T2, mouse 11β-HSD1 (Mus musculus, UniProt P50172); assay: Enzyme activity analysis on mouse 11β-HSD1 (HTRF cortisol, liver microsomes); assay type: biochemical; conditions: second value of cell
T2 construct: 100 ug/ml human/mouse liver microsomes; from tissue; host or cells: mouse liver microsomes
T2 sequence (P50172 whole entry): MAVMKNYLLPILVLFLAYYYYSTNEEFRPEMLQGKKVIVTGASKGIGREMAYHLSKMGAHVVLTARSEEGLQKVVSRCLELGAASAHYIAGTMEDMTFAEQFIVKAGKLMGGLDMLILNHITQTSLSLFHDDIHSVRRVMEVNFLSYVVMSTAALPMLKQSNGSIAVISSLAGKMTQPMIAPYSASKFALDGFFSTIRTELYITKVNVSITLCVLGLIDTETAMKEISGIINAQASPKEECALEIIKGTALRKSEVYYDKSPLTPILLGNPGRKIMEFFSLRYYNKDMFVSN
Protocol: as §1, §2

T1 sequence (P28845 whole entry): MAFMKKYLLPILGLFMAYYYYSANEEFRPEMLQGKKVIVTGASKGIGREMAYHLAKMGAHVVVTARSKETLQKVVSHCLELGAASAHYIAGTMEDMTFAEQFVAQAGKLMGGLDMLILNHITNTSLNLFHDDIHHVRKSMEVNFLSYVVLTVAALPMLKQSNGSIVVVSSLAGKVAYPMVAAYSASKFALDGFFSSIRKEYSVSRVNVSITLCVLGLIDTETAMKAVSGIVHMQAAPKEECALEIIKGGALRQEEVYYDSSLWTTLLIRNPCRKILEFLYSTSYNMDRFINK

Compound	IC50 (human 11β-HSD1) [µM]	IC50 (mouse 11β-HSD1) [µM]
NC(=O)C12CC3CC(C1)C(NC(=O)C1(NS(=O)(=O)c4ccccc4N)CCC1)C(C3)C2 (stereo not drawn) [compound 221, N-4-(1-(2-aminophenylsulfonamido)cyclobutanecarboxyamido)adamantane-1-carboxyamide]	0.079	0.151
NC(=O)C12CC3CC(C1)C(NC(=O)C1(NS(=O)(=O)c4ccccc4Cl)CCCC1)C(C3)C2 (stereo not drawn) [compound 170, N-4-(1-(2-chlorophenylsulfonamido)cyclopentanecarboxyamido)adamantane-1-carboxyamide]	0.011	0.012
O=C(NC1C2CC3CC(C2)CC1C3)C1(NS(=O)(=O)c2ccccc2[N+](=O)[O-])CCC1 (stereo not drawn) [compound 137, N-(adamantane-2-yl)-1-(2-nitrophenylsulfonamido)cyclobutanecarboxyamide]	0.255	1.1
NC(=O)C12CC3CC(C1)C(NC(=O)C1(NS(=O)(=O)c4ccccc4C(F)(F)F)CCCC1)C(C3)C2 (stereo not drawn) [compound 172, N-4-(1-(2-trifluoromethylphenylsulfonamido)cyclopentanecarboxyamido)adamantane-1-carboxyamide]	0.016	0.053
CN(C(C)(C)C(=O)NC1C2CC3CC1CC(O)(C3)C2)S(=O)(=O)c1ccccc1F (stereo not drawn) [compound 202, N-(5-hydroxyadamantane-2-yl)-2-(2-fluoro-N-methylphenylsulfonamido)-2-methylpropanamide]	0.011	0.208
O=C(NC1C2CC3CC(C2)CC1C3)C1(NS(=O)(=O)c2ccccc2Br)CCC1 (stereo not drawn) [compound 138, N-(adamantane-2-yl)-1-(2-bromophenylsulfonamido)cyclobutanecarboxyamide]	0.113	0.806
CC(C)(NS(=O)(=O)c1cc(F)c(F)c(F)c1)C(=O)NC1C2CC3CC1CC(C(N)=O)(C3)C2 (stereo not drawn) [compound 118, N-4-(2-(3,4,5-trifluorophenylsulfonamido)-2-methylpropanamido)adamantane-1-carboxy amide]	0.116	0.224
COc1ccc(S(=O)(=O)NC(C)(C)C(=O)NC2C3CC4CC(C3)CC2C4)cc1[N+](=O)[O-] (stereo not drawn) [compound 68, N-(adamantane-2-yl)-2-methyl-2-(4-methoxy-3-nitrophenylsulfonamido)propanamide]	1.2	1.12
Cc1c(Cl)cccc1S(=O)(=O)NC1(C(=O)NC2C3CC4CC2CC(C(N)=O)(C4)C3)CC1 (stereo not drawn) [compound 133, N-4-(1-(2-methyl-3-chlorophenylsulfonamido)cyclopropanecarboxyamido)adamantane-1-carboxyamide]	0.015	0.074
CC(C)(NS(=O)(=O)c1ccc([N+](=O)[O-])cc1)C(=O)NC1C2CC3CC(C2)CC1C3 (stereo not drawn) [compound 3, N-(adamantane-2-yl)-2-methyl-2-(4-nitrophenylsulfonamido)propanamide]	1.33	1.7
CN(C(C)(C)C(=O)NC1C2CC3CC1CC(C(N)=O)(C3)C2)S(=O)(=O)c1ccccc1[N+](=O)[O-] (stereo not drawn) [compound 197, N-4-(2-(2-nitro-N-methylphenylsulfonamido)-2-methylpropanamido)adamantane-1-carboxyamide]	0.004	0.008
NC(=O)C12CC3CC(C1)C(NC(=O)C1(NS(=O)(=O)c4ccccc4Cl)CC1)C(C3)C2 (stereo not drawn) [compound 132, N-4-(1-(2-chlorophenylsulfonamido)cyclopropanecarboxyamido)adamantane-1-carboxyamide]	0.037	0.148
CC(C)(NS(=O)(=O)c1cccc(Cl)c1Cl)C(=O)NC1C2CC3CC(C2)CC1C3 (stereo not drawn) [compound 8, N-(adamantane-2-yl)-2-methyl-2-(2,3-dichlorophenylsulfonamido)propanamide]	0.052	0.264
CC(C)(NS(=O)(=O)c1ccccc1OC(F)(F)F)C(=O)NC1C2CC3CC(C2)CC1C3 (stereo not drawn) [compound 25, N-(adamantane-2-yl)-2-methyl-2-(2-(trifluoromethoxy)phenylsulfonamido)propanamide]	0.045	0.42
NC(=O)C12CC3CC(C1)C(NC(=O)C1(NS(=O)(=O)c4cccc(Cl)c4Cl)CC1)C(C3)C2 (stereo not drawn) [compound 136, N-4-(1-(2,3-dichlorophenylsulfonamido)cyclopropanecarboxyamido)adamantane-1-carboxyamide]	0.009	0.028
CC(C)(NS(=O)(=O)c1ccc(OC(F)(F)F)cc1)C(=O)NC1C2CC3CC(C2)CC1C3 (stereo not drawn) [compound 4, N-(adamantane-2-yl)-2-methyl-2-(4-(trifluoromethoxy)phenylsulfonamido)propanamide]	1.32	1.68
CC(C)(NS(=O)(=O)Cc1ccccc1)C(=O)NC1C2CC3CC(C2)CC1C3 (stereo not drawn) [compound 63, N-(adamantane-2-yl)-2-methyl-2-(phenylmethylsulfonamido)propanamide]	0.039	0.283

Compound	IC50 (human 11β-HSD1) [µM]	IC50 (mouse 11β-HSD1) [µM]
CC(C)(NS(=O)(=O)c1ccc(C(=O)NC2C3CC4CC(C3)CC2C4)cc1Cl)C(=O)NC1C2CC3CC(C2)CC1C3 (stereo not drawn) [compound 44]	0.481	0.167
NC(=O)C12CC3CC(C1)C(NC(=O)C1(NS(=O)(=O)c4ccccc4F)CCCCC1)C(C3)C2 (stereo not drawn) [compound 185, N-4-(1-(2-fluorophenylsulfonamido)cyclohexanecarboxyamido)adamantane-1-carboxyamide]	0.028	0.119
CC(C)(NS(=O)(=O)Cc1ccc(C(F)(F)F)cc1)C(=O)NC1C2CC3CC(C2)CC1C3 (stereo not drawn) [compound 36, N-(adamantane-2-yl)-2-methyl-2-((4-trifluoromethylphenyl)methylsulfonamido)propanamide]	0.04	> 2.5
COc1ccc(OC)c(S(=O)(=O)NC(C)(C)C(=O)NC2C3CC4CC(C3)CC2C4)c1 (stereo not drawn) [compound 48, N-(adamantane-2-yl)-2-methyl-2-(2,5-dimethoxyphenylsulfonamido)propanamide]	0.02	1.83
CC(C)(NS(=O)(=O)c1ccccc1C(N)=O)C(=O)NC1C2CC3CC(C2)CC1C3 (stereo not drawn) [compound 56]	0.532	> 2.5
NC(=O)C12CC3CC(C1)C(NC(=O)C1(NS(=O)(=O)c4c(Cl)cccc4Cl)CCCCC1)C(C3)C2 (stereo not drawn) [compound 186, N-4-(1-(2,6-dichlorophenylsulfonamido)cyclohexanecarboxyamido)adamantane-1-carboxyamide]	0.012	0.005
CC(C)(NS(=O)(=O)c1ccccc1Cl)C(=O)NC1C2CC3CC1CC(C(=O)NCCO)(C3)C2 (stereo not drawn) [compound 231, 4-[2-(2-chloro-benzenesulfonylamino)-2-methyl-propionylamino]-adamantane-1-carboxylic acid ethanolamide]	> 2.5	> 2.5
CC(C)(NS(=O)(=O)c1ccc(C(F)(F)F)cc1)C(=O)NC1C2CC3CC(C2)CC1C3 (stereo not drawn) [compound 37, N-(adamantane-2-yl)-2-methyl-2-(4-trifluoromethylphenylsulfonamido)propanamide]	> 2.5	> 2.5
CC(C)(NS(=O)(=O)Cc1ccc(Cl)cc1)C(=O)NC1C2CC3CC(C2)CC1C3 (stereo not drawn) [compound 33, N-(adamantane-2-yl)-2-methyl-2-((4-chlorophenyl)methylsulfonamido)propanamide]	0.065	1.67
CC(C)(NS(=O)(=O)Cc1ccccc1Cl)C(=O)NC1C2CC3CC1CC(C(N)=O)(C3)C2 (stereo not drawn) [compound 98, N-4-(2-((2-chlorophenyl)methylsulfonamido)-2-methylpropanamido)adamantane-1-carboxyamide]	> 2.5	> 2.5
CCN(C(C)(C)C(=O)NC1C2CC3CC1CC(C(N)=O)(C3)C2)S(=O)(=O)c1ccccc1N (stereo not drawn) [compound 224, N-4-(2-(2-amino-N-ethylphenylsulfonamido)-2-methylpropanamido)adamantane-1-carboxyamide]	0.011	0.154
Cc1ccc(S(=O)(=O)NC2(C(=O)NC3C4CC5CC3CC(C(N)=O)(C5)C4)CCC2)cc1[N+](=O)[O-] (stereo not drawn) [compound 150, N-4-(1-(3-nitro-4-methylphenylsulfonamido)cyclobutanecarboxyamido)adamantane-1-carboxyamide]	0.639	0.187
O=C(NC1C2CC3CC(C2)CC1C3)C1(NS(=O)(=O)c2cccc3cccnc23)CCC1 (stereo not drawn) [compound 141, N-(adamantane-2-yl)-1-(quinoline-8-sulfonamido)cyclobutanecarboxyamide]	0.139	0.208
CC(C)NC(=O)C12CC3CC(C1)C(NC(=O)C(C)(C)NS(=O)(=O)c1ccccc1Cl)C(C3)C2 (stereo not drawn) [compound 235, 4-[2-(2-chloro-benzenesulfonylamino)-2-methyl-propionylamino]-adamantane-1-carboxylic acid isopropylamide]	> 2.5	> 2.5
CN(C(C)(C)C(=O)NC1C2CC3CC1CC(C(N)=O)(C3)C2)S(=O)(=O)c1ccccc1Br (stereo not drawn) [compound 189, N-4-(2-(2-bromo-N-methylphenylsulfonamido)-2-methylpropanamido)adamantane-1-carboxyamide]	0.018	> 2.5
COc1ccc(S(=O)(=O)NC(C)(C)C(=O)NC2C3CC4CC(C3)CC2C4)c(OC)c1 (stereo not drawn) [compound 47, N-(adamantane-2-yl)-2-methyl-2-(2,4-dimethoxyphenylsulfonamido)propanamide]	0.082	1.92
